# Results reported in PubChem BioAssay (NCI).
#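 Interpolation was linear, between the two tested concentrations surrounding the appropriate level; five concentrations were tested over 48 hours in 96-well plates. GI50 marks 50% less growth. TGI: total growth inhibition.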
# Tests used:
# Assay in all cases: inhibition of tumour cell growth, NCI panel, 48 h
# [1] = system: RXF 393 renal
# [2] = system: MOLT-4 leukemia
# [3] = system: SNB-19 CNS
# [4] = system: RPMI-8226 leukemia
# [5] = system: SNB-75 CNS
# [6] = system: ACHN renal
# [7] = system: IGROV1 ovarian
# [8] = system: SF-295 CNS
# [9] = system: OVCAR-4 ovarian
# [10] = system: HT29 colon
# [11] = system: K-562 leukemia
# [12] = system: MCF7 breast
# [13] = system: OVCAR-5 ovarian
# [14] = system: A549 NSCLC
# [15] = system: HOP-92 NSCLC
# [16] = system: MDA-MB-231 breast
# [17] = system: SF-268 CNS
# [18] = system: U251 CNS
# [19] = system: EKVX NSCLC
# [20] = system: SN12C renal
# [21] = system: HOP-62 NSCLC
# [22] = system: OVCAR-3 ovarian
# [23] = system: SK-OV-3 ovarian
# [24] = system: MALME-3M melanoma
# [25] = system: TK-10 renal
# [26] = system: M14 melanoma
# [27] = system: HCT-15 colon
# [28] = system: A498 renal
# [29] = system: HL-60(TB) leukemia
# [30] = system: HCT-116 colon
# [31] = system: CCRF-CEM leukemia
# [32] = system: MDA-MB-435
# [33] = system: PC-3 prostate
# [34] = system: HCC-2998 colon
# [35] = system: OVCAR-8 ovarian
# [36] = system: SF-539 CNS
# [37] = system: NCI-H460 lung
# [38] = system: 786-0 renal
# [39] = system: SW-620 colon
# [40] = system: KM12 colon
# [41] = system: UACC-257 melanoma
# [42] = system: CAKI-1 renal
# [43] = system: SK-MEL-2 melanoma
# [44] = system: HS 578T breast
# [45] = system: BT-549 breast
# [46] = system: LOX IMVI melanoma
# [47] = system: NCI-H522 lung
# [48] = system: NCI-H23 lung
# [49] = system: NCI-H226 lung
# [50] = system: SK-MEL-5 melanoma
# [51] = system: UO-31 renal
# [52] = system: COLO 205 colon
# [53] = system: SK-MEL-28 melanoma
# [54] = system: T-47D breast
# [55] = system: NCI/ADR-RES ovarian
# [56] = system: DU-145 prostate
# [57] = system: SR leukemia
smiles,measurement,setting,value
COc1ncnc(C2CC2)c1-c1ncc2cnn(Cc3ccc(-c4nc(C(F)(F)F)cn4C(C)C)cc3)c2n1,GI50,[1],6.5 µM
same,TGI,[1],39.8 µM
same,GI50,[2],17.5 µM
same,TGI,[2],> 100 µM
same,GI50,[3],22 µM
same,TGI,[3],69.5 µM
same,GI50,[4],10.9 µM
same,TGI,[4],42.2 µM
same,GI50,[5],5.36 µM
same,TGI,[5],53.6 µM
same,GI50,[6],17.6 µM
same,TGI,[6],49.2 µM
same,GI50,[7],21.1 µM
same,TGI,[7],> 100 µM
same,GI50,[8],18.4 µM
same,TGI,[8],65.1 µM
same,GI50,[9],14.2 µM
same,TGI,[9],75.6 µM
same,GI50,[10],17.9 µM
same,TGI,[10],> 100 µM
same,GI50,[11],13.9 µM
same,TGI,[11],> 100 µM
same,GI50,[12],17.3 µM
same,TGI,[12],57.4 µM
same,GI50,[13],26.2 µM
same,TGI,[13],> 100 µM
same,GI50,[14],19.3 µM
same,TGI,[14],> 100 µM
same,GI50,[15],6.41 µM
same,TGI,[15],73.5 µM
same,GI50,[16],22.9 µM
same,TGI,[16],> 100 µM
same,GI50,[17],16.2 µM
same,TGI,[17],80.9 µM
same,GI50,[18],25.7 µM
same,TGI,[18],> 100 µM
same,GI50,[19],19 µM
same,TGI,[19],95.3 µM
same,GI50,[20],18.6 µM
same,TGI,[20],> 100 µM
same,GI50,[21],25.6 µM
same,TGI,[21],> 100 µM
same,GI50,[22],22.2 µM
same,TGI,[22],76.5 µM
same,GI50,[23],36.8 µM
same,TGI,[23],> 100 µM
same,GI50,[24],17.8 µM
same,TGI,[24],57.3 µM
same,GI50,[25],29 µM
same,TGI,[25],> 100 µM
same,GI50,[26],28.1 µM
same,TGI,[26],> 100 µM
same,GI50,[27],17 µM
same,TGI,[27],90.7 µM
same,GI50,[28],24.5 µM
same,TGI,[28],> 100 µM
same,GI50,[29],31 µM
same,TGI,[29],> 100 µM
same,GI50,[30],22.2 µM
same,TGI,[30],> 100 µM
same,GI50,[31],34 µM
same,TGI,[31],> 100 µM
same,GI50,[32],19.8 µM
same,TGI,[32],51.6 µM
same,GI50,[33],17.5 µM
same,TGI,[33],> 100 µM
same,GI50,[34],23.3 µM
same,TGI,[34],> 100 µM
same,GI50,[35],21 µM
same,TGI,[35],> 100 µM
same,GI50,[36],16.1 µM
same,TGI,[36],39 µM
same,GI50,[37],18.4 µM
same,TGI,[37],85.4 µM
same,GI50,[38],31.4 µM
same,TGI,[38],> 100 µM
same,GI50,[39],28 µM
same,TGI,[39],> 100 µM
same,GI50,[40],23.4 µM
same,TGI,[40],81.8 µM
same,GI50,[41],18.4 µM
same,TGI,[41],58.8 µM
same,GI50,[42],14.2 µM
same,TGI,[42],> 100 µM
same,GI50,[43],14.5 µM
same,TGI,[43],30.4 µM
same,GI50,[44],17.8 µM
same,TGI,[44],> 100 µM
same,GI50,[45],21 µM
same,TGI,[45],80.5 µM
same,GI50,[46],14.8 µM
same,TGI,[46],31.7 µM
same,GI50,[47],8.52 µM
same,TGI,[47],48.3 µM
same,GI50,[48],21.8 µM
same,TGI,[48],78 µM
same,GI50,[49],9.08 µM
same,TGI,[49],50.7 µM
same,GI50,[50],12.6 µM
same,TGI,[50],25.2 µM
same,GI50,[51],3.25 µM
same,TGI,[51],36.7 µM
same,GI50,[52],23.5 µM
same,TGI,[52],89.4 µM
same,GI50,[53],19.1 µM
same,TGI,[53],71.3 µM
same,GI50,[54],10.6 µM
same,TGI,[54],85.2 µM
same,GI50,[55],15.6 µM
same,TGI,[55],82.6 µM
same,GI50,[56],22.1 µM
same,TGI,[56],> 100 µM
same,GI50,[57],19.7 µM
same,TGI,[57],> 100 µM
